Entries after “also recorded” stand apart in the source; their conditions may differ. Where two headings read alike, the source gives them in different places.
Key:
[1] = tested on: Cyp3a1(CYP3A4) mRNA in the liver; assay: qRT-PCR mRNA expression in rat liver after ribociclib; format: in vivo; conditions: rats, ribociclib continuously for 8 days
Description: qRT-PCR analysis was used to determine the mRNA levels of Cyp3a1(CYP3A4) in the liver and Abcb1a (P-gp), Cyp3a1(CYP3A4), Abcg2(BCRP) in the intestines. Total RNA was extracted from frozen liver and intestine samples using the TRNzol Universal reagent, following the manufacturer’s instructions. The Bio Tek Epoch (Bio Tek Instruments, Inc., Winooski, VT, United States) was used to quantify the purity and concentration of the total RNA, based on the ratio of the absorbance at 260 and 280 nm. The RNA samples, each containing 1 µg of material, were converted to complementary DNA (cDNA) using the FastKing RT Kit. The real-time PCR assays were performed using a two-step amplification protocol on the SLAN-96S Real-Time PCR system (Shanghai Hongshi Medical Technology Co., Ltd., Shanghai, China). […] was employed as an internal control, and the PCR cycling criteria were as follows: 95°C for 15 min, followed by 40 cycles of 95°C for 10 s and 60°C for 32 s.

[2] = Pharmacokinetic study of ribociclib in rats, alone and after rivaroxaban or apixaban (UPLC-MS/MS plasma levels); format: in vivo, Sprague-Dawley rats; conditions: for Cmax / AUC(0-inf) / AUC(0-t) / Tmax / half-life / CL/F / MRT inf / MRT last / Vd/F: Sprague-Dawley, rat, plasma, 60 mg/kg; for CL/F: read-out: CLz/F (converted); for MRT inf: read-out: MRT0- ∞; for MRT last: read-out: MRT0-t; for Vd/F: read-out: Vz/F
Protocol: Experimental animals were randomly divided into nine groups (n = 6, Table 1). Ribociclib was suspended in methylcellulose (MC), rivaroxaban was prepared in hydroxypropyl methylcellulose (HPMC), and apixaban was suspended in 5% DMSO in water. To achieve steady-state blood concentrations, a drug typically requires five to seven half-lives. Based on this principle, ribociclib was administered orally for eight consecutive days, while rivaroxaban and apixaban were administered orally for five consecutive days to ensure steady-state concentrations were reached before further analysis. Approximately 0.1 mL of blood was collected into heparinized tubes via the orbitalat specified time points before and after the final drug administration. […] Blood samples were centrifuged at 3,500 rpm for 10 min, and the supernatant was collected and stored at −80°C until processing for UPLC-MS/MS. Apixaban and rivaroxaban concentrations in plasma samples were determined using our previously established UPLC-MS/MS method ([Wang et al., 2023]). Ribociclib concentrations were quantified using an LC-30A UPLC system (Shimadzu, Kyoto, Japan) coupled with a Sciex Triple Quad 5500 tandem quadrupole mass spectrometer (AB Sciex, Framingham, MA, United States) equipped with an electrospray ionization interface. Chromatographic separation was performed using a Welch Boltimate column (2.1 mm × 100 mm, 2.7 μm) maintained at 40°C. The mobile phase was composed of water containing 0.1% formic acid (phase A) and acetonitrile (phase B). The flow rate was held constant at 0.3 mL/min. […] The injection volume was 1 μL. The mass spectrometer operated in positive ion mode and multiple reaction monitoring (MRM) mode for detection and quantification. The monitored transitions of precursors to product ions were as follows: 441.3→332.1 for ribociclib-d6 and 435.3.→322.1 for ribociclib (Figure 1). The mass spectrometer conditions, including delustering potential (DP) and collision energy (CE) of the compounds, are shown in Table 2. Other parameters of the mass spectrometer were as follows: ion source gas 160.0 psi; ion source gas 2,50.0 psi; curtain gas, 25.0 psi. The source temperature was 500°C and the ion spray voltage was 5,500 V. A 50 µL plasma sample was mixed with 5 µL of the IS working solution, followed by the addition of 150 µL of acetonitrile. The mixture was vortexed for 2 min and then centrifuged at 12,000 rpm for 10 min. Next, 70 µL of the supernatant was collected and mixed with 70 µL of 50% (v/v) of acetonitrile in water. The mixture was vortexed for 1 min, and then 1 µL was injected into the UPLC-MS/MS system for analysis. […] The area under the concentration–time curve (AUC), maximum plasma concentration (Cmax), time to maximum plasma concentration (Tmax), the time required to eliminate half of the plasma drug concentration (t1/2), clearance of drug plasma volume per unit time (CLz/F), apparent volume distribution (Vz/F), mean residence time (MRT) and the absorption rate constant (Ka) are all expressed as mean ± standard deviation (SD). SPSS 25.0 statistical software (SPSS Inc., Chicago, IL, United States) was applied to statistically analyze the mainpharmacokinetic parameters. Shapiro-Wilk test was used to assess whether the data were normally distributed, t test was used for parameters conforming to the normal distribution, and Mann-Whitney U test was used for parameters not conforming to the normal distribution. Statistical comparisons were conducted using a analysis of variance, t-test or nonparametric rank-sum test depending on the data type.

[3] = parameters: method as in Samant et al., 2020; conditions: ref Samant et al., 2020, cited from earlier work
[4] = parameters: method as in Wang et al., 2023; conditions: rats, with almonertinib; ref Wang et al., 2023; cited from earlier work
[5] = po, rats, RIBO 60 mg/kg after API 0.5 mg/kg for 5 days
[6] = po, rats, RIBO 60 mg/kg after RIVA 2 mg/kg for 5 days
[7] = po, rats, oral RIBO 60 mg/kg alone

CN(C)C(=O)c1cc2cnc(Nc3ccc(N4CCNCC4)cn3)nc2n1C1CCCC1 [RIBO, ribociclib]
mRNA expression of Cyp3a1 in the liver [1]: no significant changes | Cmax ([2]; oral, rats administered 60 mg/kg): ~1500 ng/mL | AUC(0-inf) [2, 5]: 25200 ng·h/mL | AUC(0-t) [2, 5]: 24500 ng·h/mL | Cmax [2, 5]: 2080 ± 400 ng/mL | Tmax [2, 5]: 4.33 ± 1.37 h | half-life [2, 5]: 495 ± 172 min | CL/F [2, 5]: 40.2 mL/min/kg | MRT inf [2, 5]: 11 ± 2.83 h | MRT last [2, 5]: 9.71 ± 1.15 h | Vd/F [2, 5]: 28.3 ± 8.33 L/kg | AUC(0-inf) [2, 6]: 21500 ng·h/mL | AUC(0-t) [2, 6]: 21400 ng·h/mL | Cmax [2, 6]: 1600 ng/mL | Tmax [2, 6]: 4.33 ± 0.52 h | half-life [2, 6]: 368 ± 84.6 min | CL/F [2, 6]: 47.2 mL/min/kg | MRT inf [2, 6]: 10.1 ± 2.16 h | MRT last [2, 6]: 9.77 ± 1.74 h | Vd/F [2, 6]: 24.7 ± 4.85 L/kg | AUC(0-inf) [2, 7]: 20800 ng·h/mL | AUC(0-t) [2, 7]: 20300 ng·h/mL | Cmax [2, 7]: 1620 ng/mL | Tmax [2, 7]: 2.4 ± 0.89 h | half-life [2, 7]: 472 ± 250 min | CL/F [2, 7]: 49.3 mL/min/kg | MRT inf [2, 7]: 11.8 ± 4.35 h | MRT last [2, 7]: 10.1 ± 1.79 h | Vd/F [2, 7]: 35.5 ± 26.3 L/kg | changes in the pharmacokinetic parameters ([2]; rats, RIBO 60 mg/kg after multiple doses of apixaban vs alone): no significant changes; also recorded: did not alter | changes in the pharmacokinetic parameters ([2]; rats, RIBO 60 mg/kg after multiple doses of rivaroxaban vs alone): no significant changes; also recorded: did not alter | slight increase in Cmax ([2]; rats, RIBO 60 mg/kg, apixaban group vs alone): not statistically significant | reduction of AUC ([3]; with rifampicin, a strong CYP3A inducer): 89% | increase of AUC ([3]; with ritonavir, a strong CYP3A inhibitor): 3.2 fold

O=C(NC[C@H]1CN(c2ccc(N3CCOCC3=O)cc2)C(=O)O1)c1ccc(Cl)s1 [RIVA, rivaroxaban]
increase in AUC [4]: over three fold increases | increase in Cmax [4]: over three fold increases

— publication PMC11994961, “In Vivo pharmacokinetic interactions of ribociclib with rivaroxaban and apixaban in rats: implications for increased drug exposure and dose adjustments” (Frontiers in Pharmacology, 2025)
